Legend:
[1] = tested on: T cell clone HER500.23c21; test: Antigen-specific stimulation of T cell clone HER500.23c21 by protein antigens presented by autologous PBMC (IFNγ ELISA, IL-2 by HT-2 proliferation); assay type: cell-based, human; conditions: autologous PBMC presentation, increasing doses of antigen; for IFNγ and IL-2 production by HER500.23c21 in response to antigen: 48 hours
Description: FIG. 1. T cell clone HER500.23c21 is HER-2/Neu specific. (A) HER500 (amino acids ▪ and BA7072 (HER500/GM-CSF fusion protein) ♦ specific IFNγ production by HER500.23c21 was measured using ELISA after autologous PBMC presentation of the antigens; background was also tested ▴. Assay was set up in triplicate in 96 well round bottom plates in complete IMDM media with 10% FBS. Autologous PBMCs were used at 2×10^5 cells/well and T cell clone HER500.23c21 was added at 1×10^5 cells/well. Antigens were at the final concentrations shown. Assay was incubated for 48 hours at 37° C. with 5% CO2 and supernatant was removed from wells to test for cytokine production. (A) IFNγ production. Data points shown represent the calculated pg/mL for each antigen concentration. (B) IL-2 production for the same assay was measured using HT-2 cell proliferation. Data points represent the mean CPM values for each antigen concentration.
Identification and Characterization of HER-2/neu specific T cell clones. Clones were screened for antigen specificity using autologous PBMC and antigen or autologous EBV-LcL and Her500 peptides. Stimulations were set up in 96 well round bottom plates in cRPMI+10% FBS media and incubated for 48 hours at 37° C. with 5% CO2. Additionally, clones were stained for CD4 and CD8 surface expression by flow cytometry.
Cytokine Production. To determine cytokine production in the antigen specific stimulation assays, after 48 hours, 200 μL of supernatant was pulled from cultures and tested for both IL-2 and IFNγ production. IL-2 production was measured using the IL-2 dependent line HT-2 (ATCC). HT-2 cells were grown in IMDM with 10% FBS and 100 uM NEAA, 1 mM Sodium Pyruvate, 2 mM L-glutamine, […], 50 U/mL Streptomycin, 20 mM HEPES and 20 uM 2-Mercaptoethanol (cIMDM+10% FBS) and fed twice a week with 20 ng/mL rIL-2. For the assay, 4 days after HT-2 cells were split, cells were washed with IMDM+10% FBS to remove all rIL-2, and cells were added to 96 well round bottom plates at 1×10^4 cells/well in cIMDM+10% FBS. Supernatants from antigen specific stimulation were added to wells and plates were incubated 24-30 hours at 37° C. The following day 1 μCi of ^3[H] TdR was added for the final 6 hours of the assay and plates were harvested to glass fiber filter mats and DNA incorporation of the radioisotope, or proliferative response, was determined by counts per minute using a liquid scintillation counter (PerkinElmer Life and Analytical Sciences, Inc. Boston, Mass.). IFNγ production was measured using anti-human IFNγ antibody pairs for ELISA (BD Pharmingen, San Diego, Calif.). […] 2M HCl was added to stop the reaction and plates were read for absorbance at 492 nm on a spectrophotometer. […]

[2] = tested on: T cell clone HER500.23c21; test: Minimal epitope: truncated HERp270-284 peptides presented by EBV LcL lines of diverse HLA-DRB1 alleles to HER500.23c21; assay type: cell-based, human; conditions: presented by EBV LcL lines representing HLA-DRB1 alleles *0301, *0302, *1301 and *1402
Source text: FIG. 5. Graphic depiction of IFNγ production by HER500.23c21 following exposure to peptides presented by EBV LcL lines of diverse HLA-DRb1 alleles. The peptides were 9-mers (SEQ ID NOS:3-9) within the HER-2/Neu peptide 270-284 (SEQ ID NO:2).
FIG. 6. Graphic depiction of IFNγ production by HER500.23c21 following exposure to peptides presented by EBV LcL lines of diverse HLA-DRb1 alleles. The peptides were 10- or 11-mers (SEQ ID NOs:12-15, 10, 1, 16-19 and 11, respectively) within the HER-2/Neu peptide 270-284.
Because of the clear response of HER500.23c21 to HER-2/Neu protein sequences, the specific epitope recognized by HER500.23c21 was mapped using peptides. HER500.23c21 was tested against a panel of 125 individual overlapping 15-mer peptides covering the HER-2/Neu protein sequences within HER500. Each peptide was used at 1 ug/ml with autologous EBV LCL cells as antigen presenting cells. […]
In this series of experiments, additional peptides derived from the HER-2/Neu protein were tested for their potential as promiscuous MHC Class II HER-2/neu epitopes. […] Supernatants were harvested and analyzed for IFNγ production using ELISA. […] Results of the IFNγ produced by clone HER500.23c21 in response to peptide and each HLA-DR allele are reported in pg/mL of IFNγ or as absorbance at 492 nm.

| Substance | dose dependence of HER500.23c21 response to protein [1] | IFNγ and IL-2 production by HER500.23c21 in response to antigen [1] | Stimulation of HER500.23c21 [2] |
| --- | --- | --- | --- |
| BA7072: proprietary recombinant fusion protein: HER500 expressed as a fusion protein with hGM-CSF | dose dependent manner | specifically produced IFNγ and IL-2 | – |
| TYNTDTFESMP (HER-2p270-284 11-mer) [SEQ ID NO:11, 11-mer truncation of HERp270-284] | – | – | successful |
| HER500: recombinant protein containing sequences from both the ECD and ICD of HER-2/neu; HER-2/neu portion of BA7072 | dose dependent manner | specifically produced IFNγ and IL-2 | – |
| VTYNTDTFESM (HER-2p270-284 11-mer) [SEQ ID NO:10, 11-mer truncation of HERp270-284] | – | – | successful |

Reference: patent publication US8263757B2, “Promiscuous HER-2/Neu CD4 T cell epitopes” (Dendreon Corporation, priority 2006, dated 2012)
